This passage reports T/C results from PubChem BioAssay AID330 (DTP/NCI, 2004).

Values joined by “and” are separate entries in the source; they are usually repeats but may differ in a detail not shown here. Equal entries are not always repeated. Inconclusive results and toxic doses are left out.

The test system of the test is P388 leukemia ip, CD2F1 mice, survival T/C. Kind of test: NCI In Vivo Anticancer Drug Screen. Data for tumor model P388 Leukemia (intraperitoneal) in CD2F1 (CDF1) mice. The note with it: endpoint: median survival time, higher = longer survival. A digest of the protocol:
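Mice carrying the transplanted tumor received test compound or vehicle. Survival was recorded in each group, and the value is the treated-group measurement divided by that of the vehicle-treated control group.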

[1] abbreviates: dose: 12.5 mg/kg/injection, schedule: Q01DX005 (ip), vehicle: saline with Tween-80.
[2] abbreviates: dose: 25.0 mg/kg/injection, schedule: Q01DX005 (ip), vehicle: saline with Tween-80.
The mark [3] stands for this setting: dose: 50.0 mg/kg/injection, schedule: Q01DX005 (ip), vehicle: Klucel (hydroxypropylcellulose) (HPC).
[4] abbreviates: dose: 100.0 mg/kg/injection, schedule: Q01DX005 (ip), vehicle: Klucel (hydroxypropylcellulose) (HPC).
Where [5] appears, read: dose: 200.0 mg/kg/injection, schedule: Q01DX005 (ip), vehicle: Klucel (hydroxypropylcellulose) (HPC).
Setting [6] is: dose: 50.0 mg/kg/injection, schedule: Q01DX009 (ip), vehicle: saline with Tween-80.
Where [7] appears, read: dose: 60.0 mg/kg/injection, schedule: Q01DX005 (ip), vehicle: saline with Tween-80.
Where [8] appears, read: dose: 120.0 mg/kg/injection, schedule: Q01DX005 (ip), vehicle: saline with Tween-80.
Where [9] appears, read: dose: 240.0 mg/kg/injection, schedule: Q01DX005 (ip), vehicle: saline with Tween-80.
Setting [10] is: dose: 50.0 mg/kg/injection, schedule: Q01DX005 (ip), vehicle: saline with Tween-80.

On to `O=C(O)CCCCc1ccc(CCCCC(=O)O)cc1`, for which the T/C (dose: 18.75 mg/kg/injection, schedule: Q04DX003 (ip), vehicle: Klucel (hydroxypropylcellulose) (HPC)) was 106 % of control; the T/C (dose: 37.5 mg/kg/injection, schedule: Q04DX003 (ip), vehicle: Klucel (hydroxypropylcellulose) (HPC)) was 111 % of control; the T/C (dose: 75.0 mg/kg/injection, schedule: Q04DX003 (ip), vehicle: Klucel (hydroxypropylcellulose) (HPC)) was 113 % of control.
`O=C1c2c(O)ccc(Cl)c2C(=O)C2CC=CCC12` (stereo unspecified): the T/C (dose: 50.0 mg/kg/injection, schedule: Q04DX003 (ip), vehicle: DMSO) is 94 % of control; the T/C (dose: 100.0 mg/kg/injection, schedule: Q04DX003 (ip), vehicle: DMSO) is 88 % of control; the T/C (dose: 200.0 mg/kg/injection, schedule: Q04DX003 (ip), vehicle: DMSO) was 87 % of control.
Turning to `O=NNc1ncc(Sc2ccccc2)nc1Sc1ccccc1`, the T/C is, setting by setting: (dose: 6.25 mg/kg/injection, schedule: Q01DX009 (ip), vehicle: water) 103 % of control; (dose: 12.5 mg/kg/injection, schedule: Q01DX009 (ip), vehicle: water) 113 % of control; (dose: 25.0 mg/kg/injection, schedule: Q01DX009 (ip), vehicle: water) 122 % of control; (dose: 100.0 mg/kg/injection, schedule: Q01DX009 (ip), vehicle: water) 106 % of control.
Regarding `CC(=O)CCN1C(C#N)CCCC1C#N` (stereo unspecified), the T/C is 102 % of control (dose: 6.25 mg/kg/injection, schedule: Q01DX005 (ip), vehicle: saline with Tween-80); 91 % of control under setting [1]; 100 % of control under setting [2].
As to `O=c1oc(-c2nc3sc4c(c3c(=O)o2)CCCC4)nc2sc3c(c12)CCCC3`, the T/C was 100 % of control under setting [3], 100 % of control under setting [4] and 93 % of control under setting [5].
Take `S=P([S][Sn]([S]P(=S)(c1ccccc1)c1ccccc1)([c]1ccccc1)[c]1ccccc1)(c1ccccc1)c1ccccc1`: the T/C reads like this: (dose: 1.56 mg/kg/injection, schedule: Q01DX005 (ip), vehicle: Klucel (hydroxypropylcellulose) (HPC)) 108 % of control; (dose: 3.12 mg/kg/injection, schedule: Q01DX005 (ip), vehicle: Klucel (hydroxypropylcellulose) (HPC)) 117 % of control.
In the case of `O=C1c2c(O)ccc(O)c2C(=O)c2c(NCCCCO)ccc(NCCCCO)c21`, the T/C runs as follows: (dose: 0.62 mg/kg/injection, schedule: Q01DX009 (ip), vehicle: acid diluted with saline) 103 % of control; (dose: 1.25 mg/kg/injection, schedule: Q01DX009 (ip), vehicle: acid diluted with saline) 103 % of control; (dose: 2.5 mg/kg/injection, schedule: Q01DX009 (ip), vehicle: acid diluted with saline) 103 % of control; (dose: 5.0 mg/kg/injection, schedule: Q01DX009 (ip), vehicle: acid diluted with saline) 112 % of control; (dose: 10.0 mg/kg/injection, schedule: Q01DX009 (ip), vehicle: acid diluted with saline) 102 % of control; (dose: 20.0 mg/kg/injection, schedule: Q01DX009 (ip), vehicle: acid diluted with saline) 100 % of control. The T/C runs as follows: (dose: 40.0 mg/kg/injection, schedule: Q01DX009 (ip), vehicle: acid diluted with saline) 98 % of control; (dose: 80.0 mg/kg/injection, schedule: Q01DX009 (ip), vehicle: acid diluted with saline) 92 % of control; (dose: 160.0 mg/kg/injection, schedule: Q01DX009 (ip), vehicle: acid diluted with saline) 86 % of control.
For `Cc1cc(NCCCCCCNc2cc(C)nc3ccc(N)cc23)c2cc(N)ccc2n1`, the T/C is 177 % of control (dose: 75.0 mg/kg/injection, schedule: Q04DX003 (ip), vehicle: alcohol); 186 % of control (dose: 150.0 mg/kg/injection, schedule: Q04DX003 (ip), vehicle: alcohol); 190 % of control (dose: 300.0 mg/kg/injection, schedule: Q04DX003 (ip), vehicle: alcohol).
`COc1cccc(S(=O)c2ccc([N+](=O)[O-])c3no[n+]([O-])c23)c1` (stereo unspecified): the T/C was 95 % of control (dose: 3.75 mg/kg/injection, schedule: Q01DX009 (ip), vehicle: saline with Tween-80); 104 % of control (dose: 7.5 mg/kg/injection, schedule: Q01DX009 (ip), vehicle: saline with Tween-80); 112 % of control (dose: 15.0 mg/kg/injection, schedule: Q01DX009 (ip), vehicle: saline with Tween-80).
As for `C[N+](C)(C)CCC(=O)c1ccc(O)cc1`, the T/C is 97 % of control (dose: 3.13 mg/kg/injection, schedule: Q01DX009 (ip), vehicle: saline); 100 % of control (dose: 6.25 mg/kg/injection, schedule: Q01DX009 (ip), vehicle: saline); 118 % of control (dose: 12.5 mg/kg/injection, schedule: Q01DX009 (ip), vehicle: saline).
For the molecule `CC12CCC3C4CCC(=O)C(O)=C4CCC3C1CCC2OC(=O)CCC1CCCC1` (stereo unspecified), the T/C is, setting by setting: (dose: 50.0 mg/kg/injection, schedule: Q04DX003 (sc), vehicle: Klucel (hydroxypropylcellulose) (HPC)) 99 % of control; (dose: 100.0 mg/kg/injection, schedule: Q04DX003 (sc), vehicle: Klucel (hydroxypropylcellulose) (HPC)) 118 % of control; (dose: 200.0 mg/kg/injection, schedule: Q04DX003 (sc), vehicle: Klucel (hydroxypropylcellulose) (HPC)) 101 % of control.
As for `CC1CCN(CC(O)C(C)(C)Oc2ccc(-c3ccccc3)cc2)CC1` (stereo unspecified), the T/C under setting [3] is 97 % of control and the T/C under setting [4] was 93 % of control.
Regarding `CC1(C)OC(CP(=O)(c2ccccc2)c2ccccc2)C(CP(=O)(c2ccccc2)c2ccccc2)O1` (stereo unspecified), the T/C by setting is: under setting [3], 97 % of control; under setting [4], 97 % of control; under setting [5], 94 % of control.
With `O=C1c2ccccc2C(=O)N1CBr`, the T/C reads like this: (dose: 12.5 mg/kg/injection, schedule: Q01DX009 (ip), vehicle: saline with Tween-80) 109 % of control; (dose: 25.0 mg/kg/injection, schedule: Q01DX009 (ip), vehicle: saline with Tween-80) 104 % of control; under setting [6], 100 % of control.
For the molecule `COC(=O)NC1(NC(=O)OC)NC(=O)c2cc(OC)c(OC)c(OC)c2N1`, the T/C reads like this: (dose: 25.0 mg/kg/injection, schedule: Q01DX005 (ip), vehicle: saline + alcohol) 102 % of control; (dose: 50.0 mg/kg/injection, schedule: Q01DX005 (ip), vehicle: saline + alcohol) 98 % of control; (dose: 100.0 mg/kg/injection, schedule: Q01DX005 (ip), vehicle: saline + alcohol) 100 % of control; (dose: 200.0 mg/kg/injection, schedule: Q01DX005 (ip), vehicle: saline + alcohol) 93 % of control.
On to `CC1(C)OC(=O)N(CO)C1=O`, for which the T/C is 109 % of control (dose: 50.0 mg/kg/injection, schedule: Q01DX009 (ip), vehicle: saline); 119 % of control (dose: 100.0 mg/kg/injection, schedule: Q01DX009 (ip), vehicle: saline); 100 % of control (dose: 200.0 mg/kg/injection, schedule: Q01DX009 (ip), vehicle: saline).
With `CCCCOC(=O)N(CCCl)N=O`, the T/C was 119 % of control (dose: 1.25 mg/kg/injection, schedule: Q01DX009 (ip), vehicle: saline with Tween-80); 108 % of control (dose: 2.5 mg/kg/injection, schedule: Q01DX009 (ip), vehicle: saline with Tween-80); 98 % of control (dose: 5.0 mg/kg/injection, schedule: Q01DX009 (ip), vehicle: saline with Tween-80).
Turning to `CC1C(=O)N(C)C(=O)N(C2CCCCC2)C1=O` (stereo unspecified), the T/C runs as follows: under setting [7], 104 % of control; under setting [8], 104 % of control; under setting [9], 101 % of control.
On to `COc1cc[c]([Sb]2([c]3ccc(OC)cc3)([c]3ccc(OC)cc3)[NH]c3cc(C(c4ccccc4)(c4ccccc4)c4ccccc4)cc(C(C)(C)C)c3[O]2)cc1`, for which the T/C is 100 % of control under setting [6]; 99 % of control (dose: 100.0 mg/kg/injection, schedule: Q01DX009 (ip), vehicle: saline with Tween-80); 100 % of control (dose: 200.0 mg/kg/injection, schedule: Q01DX009 (ip), vehicle: saline with Tween-80).
For the molecule `C(=N\SC(c1ccccc1)(c1ccccc1)c1ccccc1)/c1ccccc1`, the T/C runs as follows: under setting [10], 100 % of control; (dose: 100.0 mg/kg/injection, schedule: Q01DX005 (ip), vehicle: saline with Tween-80) 103 % of control.
As for `OC(c1ccccc1)C1CCNCC1` (stereo unspecified) (tested in a mixture with another compound), the T/C is 105 % of control under setting [7], 96 % of control under setting [8] and 99 % of control under setting [9].
As to `CCOc1ccc(N2C(N)=NC(N)=NC2(C)C)cc1`, the T/C runs as follows: under setting [1], 99 % of control; under setting [2], 101 % of control; under setting [10], 101 % of control and 108 % of control.
